Patent US20250311727A1, “SUBSTITUTED 2-AMINOAZINES AND SALTS THEREOF, AND USE THEREOF AS HERBICIDAL ACTIVE SUBSTANCES” (BAYER AKTIENGESELLSCHAFT, priority 2022, published 2025)

Columns and labels:
Type in all cases: in vivo
Alopecurus myosuroides [1] = assay: Post-emergence herbicidal efficacy at 320 g/ha, ALOMY; conditions: rated visually after about 3 weeks vs untreated controls, 100% = plants have died
Description: (§1) Unwanted plants/weeds: • ABUTH: Abutilon theophrasti • ALOMY: Alopecurus myosuroides • AMARE: Amaranthus retroflexus • DIGSA: Digitaria sanguinalis • ECHCG: Echinochloa crus-galli • KCHSC: Kochia scoparia • LOLRI: Lolium rigidum • MATIN: Matricaria inodora • POAAN: Poa annua • POLCO: Polygonum convolvulus • SETVI: Setaria viridis • STEME: Stellaria media • VERPE: Veronica persica • VIOTR: Viola tricolor A. Post-Emergence Herbicidal Efficacy at 320 g/ha
Seeds of mono- and dicotyledonous weed plants were placed in plastic pots in sandy loam soil (doubly sown with in each case one species of mono- or dicotyledonous weed plants per pot), covered with soil and cultivated in a greenhouse under controlled growth conditions. 2 to 3 weeks after sowing, the test plants were treated at the one-leaf stage. The compounds of the invention, formulated in the form of wettable powders (WP) or as emulsion concentrates (EC), were applied to the green parts of the plants as aqueous suspension or emulsion with addition of 0.5% additive at a water application rate equivalent to 600 litres per hectare. After the test plants had been kept in the greenhouse under optimum growth conditions for about 3 weeks, the activity of the preparations was rated visually in comparison to untreated controls.
(§2) For example, 100% activity=the plants have died, 0% activity=like control plants.
Tables A1 to A10 below show the effects of selected compounds of the general formula (I) according to Table 1 on various harmful plants and at an application rate corresponding to 320 g/ha, which were obtained by the trial procedure specified above.

Amaranthus retroflexus [2] = assay: Post-emergence herbicidal efficacy at 320 g/ha, AMARE; conditions: rated visually after about 3 weeks vs untreated controls, 100% = plants have died
Outline: (§3)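 Weeds grown from seed in sandy loam in the greenhouse were sprayed at the one-leaf stage, 2 to 3 weeks after sowing. WP or EC formulations were applied as aqueous spray with 0.5% additive at 600 L/ha. Injury was scored visually about 3 weeks later against untreated controls (0% = like control, 100% = dead).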

Digitaria sanguinalis [3] = assay: Post-emergence herbicidal efficacy at 320 g/ha, DIGSA; conditions: rated visually after about 3 weeks vs untreated controls, 100% = plants have died
Outline: as §3

Echinochloa crus-galli [4] = assay: Post-emergence herbicidal efficacy at 320 g/ha, ECHCG; conditions: rated visually after about 3 weeks vs untreated controls, 100% = plants have died
Outline: as §3

Kochia scoparia [5] = assay: Post-emergence herbicidal efficacy at 320 g/ha, KCHSC; conditions: rated visually after about 3 weeks vs untreated controls, 100% = plants have died
Outline: as §3

Poa annua [6] = assay: Post-emergence herbicidal efficacy at 320 g/ha, POAAN; conditions: rated visually after about 3 weeks vs untreated controls, 100% = plants have died
Outline: as §3

Setaria viridis [7] = assay: Post-emergence herbicidal efficacy at 320 g/ha, SETVI; conditions: rated visually after about 3 weeks vs untreated controls, 100% = plants have died
Outline: as §3

Stellaria media [8] = assay: Post-emergence herbicidal efficacy at 320 g/ha, STEME; conditions: rated visually after about 3 weeks vs untreated controls, 100% = plants have died
Outline: as §3

Veronica persica [9] = assay: Post-emergence herbicidal efficacy at 320 g/ha, VERPE; conditions: rated visually after about 3 weeks vs untreated controls, 100% = plants have died
Outline: as §3

Alopecurus myosuroides [10] = assay: Post-emergence herbicidal efficacy at 80 g/ha, ALOMY; conditions: rated visually after about 3 weeks vs untreated controls, 100% = plants have died
Description: as §1
(§4) Seeds of monocotyledonous and dicotyledonous weeds and crop plants were placed in sandy loam in plastic or organic planting pots, covered with soil and cultivated in a greenhouse under controlled growth conditions. 2 to 3 weeks after sowing, the test plants were treated at the one-leaf stage. The compounds of the invention, formulated in the form of wettable powders (WP) or as emulsion concentrates (EC), were then sprayed onto the green parts of the plants as aqueous suspension or emulsion with addition of 0.5% additive at a water application rate of 600 l/ha (converted). After the test plants had been kept in the greenhouse under optimum growth conditions for about 3 weeks, the activity of the preparations was rated visually in comparison to untreated controls. For example, 100% activity=the plants have died, 0% activity=like control plants.
(§5) Tables B1 to B11 below show the effects of selected compounds of the general formula (I) according to Table 1 on various harmful plants and an application rate corresponding to 80 g/ha, which were obtained by the experimental procedure mentioned above.

Amaranthus retroflexus [11] = assay: Post-emergence herbicidal efficacy at 80 g/ha, AMARE; conditions: rated visually after about 3 weeks vs untreated controls, 100% = plants have died
Outline: (§6)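 Foliar application at the one-leaf stage used wettable powder or emulsion concentrate formulations diluted in water with 0.5% additive (600 l/ha). Percent activity was estimated by eye after roughly 3 weeks in the greenhouse, relative to untreated controls.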

Digitaria sanguinalis [12] = assay: Post-emergence herbicidal efficacy at 80 g/ha, DIGSA; conditions: rated visually after about 3 weeks vs untreated controls, 100% = plants have died
Description: as §1, §4, §5

Veronica persica [13] = assay: Post-emergence herbicidal efficacy at 80 g/ha, VERPE; conditions: rated visually after about 3 weeks vs untreated controls, 100% = plants have died
Outline: as §6

Viola tricolor [14] = assay: Post-emergence herbicidal efficacy at 80 g/ha, VIOTR; conditions: rated visually after about 3 weeks vs untreated controls, 100% = plants have died
Outline: as §6

Abutilon theophrasti [15] = assay: Pre-emergence herbicide efficacy at 320 g/ha, ABUTH; conditions: scored visually after about 3 weeks vs untreated controls, 100% = plants have died
Outline: (§7)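 Pre-emergence soil-surface spray of WP or EC formulation in water at 600 L/ha with 0.5% additive, over seeds covered in sandy loam. Scoring visual, ~3 weeks, % of untreated.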

Alopecurus myosuroides [16] = assay: Pre-emergence herbicide efficacy at 320 g/ha, ALOMY; conditions: scored visually after about 3 weeks vs untreated controls, 100% = plants have died
Description: as §1
Seeds of mono- and dicotyledonous weed plants were placed in plastic pots in sandy loam soil (doubly sown with one species each of mono- or dicotyledonous weed plants per pot) and covered with soil. The compounds of the invention, formulated in the form of wettable powders (WP) or as emulsion concentrates (EC), were then applied to the surface of the covering soil as aqueous suspension or emulsion with addition of 0.5% additive at a water application rate of 600 litres per hectare (converted). After the treatment, the pots were placed in a greenhouse and kept under good growth conditions for the test plants. After about 3 weeks, the efficacy of the preparations was scored visually in comparison with untreated controls as percentages.
as §2
Tables C1 to C12 below show the effects of selected compounds of the general formula (I) according to Table 1 on various harmful plants and at an application rate corresponding to 320 g/ha, which were obtained by the trial procedure specified above.

Amaranthus retroflexus [17] = assay: Pre-emergence herbicide efficacy at 320 g/ha, AMARE; conditions: scored visually after about 3 weeks vs untreated controls, 100% = plants have died
Outline: as §7

Digitaria sanguinalis [18] = assay: Pre-emergence herbicide efficacy at 320 g/ha, DIGSA; conditions: scored visually after about 3 weeks vs untreated controls, 100% = plants have died
Outline: as §7

Echinochloa crus-galli [19] = assay: Pre-emergence herbicide efficacy at 320 g/ha, ECHCG; conditions: scored visually after about 3 weeks vs untreated controls, 100% = plants have died
Outline: as §7

Kochia scoparia [20] = assay: Pre-emergence herbicide efficacy at 320 g/ha, KCHSC; conditions: scored visually after about 3 weeks vs untreated controls, 100% = plants have died
Outline: as §7

Matricaria inodora = assay: Pre-emergence herbicide efficacy at 320 g/ha, MATIN; conditions: scored visually after about 3 weeks vs untreated controls, 100% = plants have died
Outline: as §7

Poa annua [21] = assay: Pre-emergence herbicide efficacy at 320 g/ha, POAAN; conditions: scored visually after about 3 weeks vs untreated controls, 100% = plants have died
Outline: as §7

Setaria viridis [22] = assay: Pre-emergence herbicide efficacy at 320 g/ha, SETVI; conditions: scored visually after about 3 weeks vs untreated controls, 100% = plants have died
Outline: as §7

Stellaria media [23] = assay: Pre-emergence herbicide efficacy at 320 g/ha, STEME; conditions: scored visually after about 3 weeks vs untreated controls, 100% = plants have died
Outline: as §7

Veronica persica [24] = assay: Pre-emergence herbicide efficacy at 320 g/ha, VERPE; conditions: scored visually after about 3 weeks vs untreated controls, 100% = plants have died
Outline: as §7

Abutilon theophrasti [25] = assay: Pre-emergence herbicide efficacy at 80 g/ha, ABUTH; conditions: scored visually after about 3 weeks vs untreated controls, 100% = plants have died
Description: as §1
(§8) Seeds of monocotyledonous and dicotyledonous weed plants and crop plants were placed in plastic or organic planting pots and covered with soil. The compounds of the invention, formulated in the form of wettable powders (WP) or as emulsion concentrates (EC), were then applied to the surface of the covering soil as aqueous suspension or emulsion with addition of 0.5% additive at a water application rate equivalent to 600 l/ha. After the treatment, the pots were placed in a greenhouse and kept under good growth conditions for the test plants. After about 3 weeks, the efficacy of the preparations was scored visually in comparison with untreated controls as percentages. For example, 100% activity=the plants have died, 0% activity=like control plants.
(§9) Tables D1 to D12 below show the effects of selected compounds of the general formula (I) according to Table 1 on various harmful plants and an application rate corresponding to 80 g/ha, which were obtained by the experimental procedure mentioned above.

Alopecurus myosuroides [26] = assay: Pre-emergence herbicide efficacy at 80 g/ha, ALOMY; conditions: scored visually after about 3 weeks vs untreated controls, 100% = plants have died
Description: as §1, §8, §9

Amaranthus retroflexus [27] = assay: Pre-emergence herbicide efficacy at 80 g/ha, AMARE; conditions: scored visually after about 3 weeks vs untreated controls, 100% = plants have died
Outline: (§10)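 Percent herbicidal activity is a visual rating relative to untreated pots, taken roughly 3 weeks after compounds went onto the covering soil of sown seeds as an aqueous WP or EC preparation with 0.5% additive.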

Digitaria sanguinalis [28] = assay: Pre-emergence herbicide efficacy at 80 g/ha, DIGSA; conditions: scored visually after about 3 weeks vs untreated controls, 100% = plants have died
Outline: as §10

Echinochloa crus-galli [29] = assay: Pre-emergence herbicide efficacy at 80 g/ha, ECHCG; conditions: scored visually after about 3 weeks vs untreated controls, 100% = plants have died
Description: as §1, §8, §9

Polygonum convolvulus = assay: Pre-emergence herbicide efficacy at 80 g/ha, POLCO; conditions: scored visually after about 3 weeks vs untreated controls, 100% = plants have died
Outline: as §10

Setaria viridis [30] = assay: Pre-emergence herbicide efficacy at 80 g/ha, SETVI
Outline: as §10

Veronica persica [31] = assay: Pre-emergence herbicide efficacy at 80 g/ha, VERPE
Outline: as §10

Viola tricolor [32] = assay: Pre-emergence herbicide efficacy at 80 g/ha, VIOTR
Outline: as §10

SMILES: Fc1cnc(Nc2cccc(F)c2-c2cc(C(F)F)no2)nc1 [Example 1-34]
- Post-emergence efficacy at 320 g/ha against ALOMY in % (Alopecurus myosuroides [1]): 100%
- Post-emergence efficacy at 320 g/ha against AMARE in % (Amaranthus retroflexus [2]): 100%
- Post-emergence efficacy at 320 g/ha against DIGSA in % (Digitaria sanguinalis [3]): 100%
- Post-emergence efficacy at 320 g/ha against ECHCG in % (Echinochloa crus-galli [4]): 100%
- Post-emergence efficacy at 320 g/ha against KCHSC in % (Kochia scoparia [5]): 100%
- Post-emergence efficacy at 320 g/ha against POAAN in % (Poa annua [6]): 100%
- Post-emergence efficacy at 320 g/ha against SETVI in % (Setaria viridis [7]): 90%
- Post-emergence efficacy at 320 g/ha against STEME in % (Stellaria media [8]): 100%
- Post-emergence efficacy at 320 g/ha against VERPE in % (Veronica persica [9]): 100%
- Post-emergence efficacy at 80 g/ha against ALOMY in % (Alopecurus myosuroides [10]): 100%
- Post-emergence efficacy at 80 g/ha against AMARE in % (Amaranthus retroflexus [11]): 100%
- Post-emergence efficacy at 80 g/ha against DIGSA in % (Digitaria sanguinalis [12]): 80%
- Post-emergence efficacy at 80 g/ha against VERPE in % (Veronica persica [13]): 100%
- Post-emergence efficacy at 80 g/ha against VIOTR in % (Viola tricolor [14]): 80%
- Pre-emergence efficacy at 320 g/ha against ABUTH in % (Abutilon theophrasti [15]): 100%
- Pre-emergence efficacy at 320 g/ha against ALOMY in % (Alopecurus myosuroides [16]): 100%
- Pre-emergence efficacy at 320 g/ha against AMARE in % (Amaranthus retroflexus [17]): 100%
- Pre-emergence efficacy at 320 g/ha against DIGSA in % (Digitaria sanguinalis [18]): 100%
- Pre-emergence efficacy at 320 g/ha against ECHCG in % (Echinochloa crus-galli [19]): 100%
- Pre-emergence efficacy at 320 g/ha against KCHSC in % (Kochia scoparia [20]): 100%
- Pre-emergence efficacy at 320 g/ha against MATIN in % (Matricaria inodora): 100%
- Pre-emergence efficacy at 320 g/ha against POAAN in % (Poa annua [21]): 100%
- Pre-emergence efficacy at 320 g/ha against SETVI in % (Setaria viridis [22]): 100%
- Pre-emergence efficacy at 320 g/ha against STEME in % (Stellaria media [23]): 100%
- Pre-emergence efficacy at 320 g/ha against VERPE in % (Veronica persica [24]): 100%
- Pre-emergence efficacy at 80 g/ha against ABUTH in % (Abutilon theophrasti [25]): 90%
- Pre-emergence efficacy at 80 g/ha against ALOMY in % (Alopecurus myosuroides [26]): 90%
- Pre-emergence efficacy at 80 g/ha against AMARE in % (Amaranthus retroflexus [27]): 100%
- Pre-emergence efficacy at 80 g/ha against DIGSA in % (Digitaria sanguinalis [28]): 100%
- Pre-emergence efficacy at 80 g/ha against ECHCG in % (Echinochloa crus-galli [29]): 90%
- Pre-emergence efficacy at 80 g/ha against POLCO in % (Polygonum convolvulus): 90%
- Pre-emergence efficacy against SETVI (Setaria viridis [30]): 100%
- Pre-emergence efficacy against VERPE (Veronica persica [31]): 100%
- Pre-emergence efficacy against VIOTR (Viola tricolor [32]): 100%
